In patent US9309242B2, “Substituted pyrido[2,3-b]pyrazines as FGFR kinase inhibitors” (priority 2011, dated 2016):
pIC50: −log10 of the molar value. Like-named read-outs stand apart in the source and are kept apart here.

Assays:
FGFR1 (h) = FGFR1 (h) (Homo sapiens, UniProt P11362); test: FGFR1 (enzymatic assay), TR-FRET; assay type: biochemical; conditions: read-out: FGFR 1 pIC50 (converted)
FGFR2 (h) = FGFR2 (h) (Homo sapiens, UniProt P21802); test: FGFR2 (enzymatic assay), TR-FRET; assay type: biochemical; conditions: enzymatic assay, read-out: FGFR 2 pIC50 (converted)
Chain of FGFR2 (h) (P21802 22-821): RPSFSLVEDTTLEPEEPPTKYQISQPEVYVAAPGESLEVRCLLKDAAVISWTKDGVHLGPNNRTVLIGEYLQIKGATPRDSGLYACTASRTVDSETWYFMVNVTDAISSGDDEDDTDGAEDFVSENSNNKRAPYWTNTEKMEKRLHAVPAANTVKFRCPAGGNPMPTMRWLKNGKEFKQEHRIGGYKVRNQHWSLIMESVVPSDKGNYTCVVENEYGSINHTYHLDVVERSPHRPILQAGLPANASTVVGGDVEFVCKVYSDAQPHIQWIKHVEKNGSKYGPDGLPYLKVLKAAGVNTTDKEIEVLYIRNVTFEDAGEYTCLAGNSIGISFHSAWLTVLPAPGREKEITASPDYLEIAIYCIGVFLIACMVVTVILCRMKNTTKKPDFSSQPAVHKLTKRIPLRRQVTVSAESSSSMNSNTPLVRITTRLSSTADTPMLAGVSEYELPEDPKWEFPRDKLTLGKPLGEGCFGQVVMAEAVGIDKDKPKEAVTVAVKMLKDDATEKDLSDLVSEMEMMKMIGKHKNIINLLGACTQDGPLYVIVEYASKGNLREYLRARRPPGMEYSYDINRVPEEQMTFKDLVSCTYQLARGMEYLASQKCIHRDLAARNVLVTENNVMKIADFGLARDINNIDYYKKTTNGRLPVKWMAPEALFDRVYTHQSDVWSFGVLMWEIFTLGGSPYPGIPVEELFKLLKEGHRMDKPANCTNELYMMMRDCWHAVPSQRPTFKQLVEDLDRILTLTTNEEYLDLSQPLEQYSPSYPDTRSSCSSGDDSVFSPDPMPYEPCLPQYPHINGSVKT
Summary of the method: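 hFGFR2 150 ng/ml; Btn-Flt3 500 nM; ATP 0.4 μM; 50 mM HEPES pH 7.5, 6 mM MnCl2, 1 mM DTT, 0.1 mM Na3VO4, 0.01% Triton-X-100; 1% DMSO final.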

FGFR3 (h) = FGFR3 (h) (Homo sapiens, UniProt P22607); test: FGFR3 (enzymatic assay), TR-FRET; assay type: biochemical; conditions: read-out: FGFR 3 pIC50 (converted)
Source text: Time-Resolved Fluorescence Resonance Energy Transfer (TR-FRET) signal (ex340 nm.

FGFR4 (h) = FGFR4 (h) (Homo sapiens, UniProt P22455); test: FGFR4 (enzymatic assay), TR-FRET; assay type: biochemical; conditions: FGFR 4 pIC50, enzymatic assay
KDR (h) = KDR (h) (Homo sapiens, UniProt P35968); test: KDR (VEGFR2) (enzymatic assay), TR-FRET; assay type: biochemical; conditions: for IC50: read-out: VEGFR 2 (KDR) pIC50 (converted)
Chain of KDR (h) (P35968 20-1356): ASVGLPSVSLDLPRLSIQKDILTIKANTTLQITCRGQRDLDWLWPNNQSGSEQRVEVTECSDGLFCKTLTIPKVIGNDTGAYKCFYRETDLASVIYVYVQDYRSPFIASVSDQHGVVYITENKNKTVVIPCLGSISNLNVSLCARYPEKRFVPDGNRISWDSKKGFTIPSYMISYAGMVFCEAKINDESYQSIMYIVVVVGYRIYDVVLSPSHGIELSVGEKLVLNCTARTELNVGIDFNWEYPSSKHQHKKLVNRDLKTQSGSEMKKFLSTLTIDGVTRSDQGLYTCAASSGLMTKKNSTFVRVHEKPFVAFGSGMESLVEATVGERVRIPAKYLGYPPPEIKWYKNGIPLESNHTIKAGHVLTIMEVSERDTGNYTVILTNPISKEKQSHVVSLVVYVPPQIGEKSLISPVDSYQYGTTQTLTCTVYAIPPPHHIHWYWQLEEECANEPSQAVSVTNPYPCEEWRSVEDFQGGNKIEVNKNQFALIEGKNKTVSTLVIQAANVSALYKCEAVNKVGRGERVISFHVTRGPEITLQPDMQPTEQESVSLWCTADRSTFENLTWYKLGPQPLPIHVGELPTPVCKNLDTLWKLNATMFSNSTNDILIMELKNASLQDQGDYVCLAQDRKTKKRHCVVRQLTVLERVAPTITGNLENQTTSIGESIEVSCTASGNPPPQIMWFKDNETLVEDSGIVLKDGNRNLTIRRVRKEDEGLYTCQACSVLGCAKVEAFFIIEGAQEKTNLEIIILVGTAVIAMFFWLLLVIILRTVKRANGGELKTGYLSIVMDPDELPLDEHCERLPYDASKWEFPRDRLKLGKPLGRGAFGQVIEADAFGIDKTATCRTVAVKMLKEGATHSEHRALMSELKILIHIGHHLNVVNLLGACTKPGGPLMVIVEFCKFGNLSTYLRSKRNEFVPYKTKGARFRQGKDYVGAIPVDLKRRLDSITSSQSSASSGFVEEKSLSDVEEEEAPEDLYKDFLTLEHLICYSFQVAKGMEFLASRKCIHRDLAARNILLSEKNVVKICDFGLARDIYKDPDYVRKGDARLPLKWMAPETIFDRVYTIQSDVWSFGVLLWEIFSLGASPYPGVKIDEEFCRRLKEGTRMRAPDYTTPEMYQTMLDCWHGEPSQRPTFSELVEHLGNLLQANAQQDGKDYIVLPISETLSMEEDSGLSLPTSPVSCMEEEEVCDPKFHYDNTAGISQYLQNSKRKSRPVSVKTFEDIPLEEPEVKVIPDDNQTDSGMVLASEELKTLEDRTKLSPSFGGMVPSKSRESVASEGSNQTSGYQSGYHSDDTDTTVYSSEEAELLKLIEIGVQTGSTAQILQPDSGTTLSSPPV
Summary of the method: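 TR-FRET readout (ex 340, em 620/655 nm) in RFU after EDTA stop with Eu-anti-phosphotyrosine and SA-XL665 for 60 min. The preceding 120-min room-temperature kinase step used 150 ng/ml KDR (h), 3 μM ATP, 500 nM biotinylated Flt3 peptide, MnCl2-containing HEPES buffer pH 7.5, 1% DMSO.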

[1] = biological target: T1, Ba/F3-FGFR1-transfected cells (Homo sapiens, UniProt P11362); test: Ba/F3-FGFR1 (minus IL3) cellular proliferation assay, Alamar Blue; assay type: cell-based
T1 construct: BAF3-FGFR1 (MIN IL3) pIC50; other: minus IL3
T1 sequence (P11362 whole entry, change not shown): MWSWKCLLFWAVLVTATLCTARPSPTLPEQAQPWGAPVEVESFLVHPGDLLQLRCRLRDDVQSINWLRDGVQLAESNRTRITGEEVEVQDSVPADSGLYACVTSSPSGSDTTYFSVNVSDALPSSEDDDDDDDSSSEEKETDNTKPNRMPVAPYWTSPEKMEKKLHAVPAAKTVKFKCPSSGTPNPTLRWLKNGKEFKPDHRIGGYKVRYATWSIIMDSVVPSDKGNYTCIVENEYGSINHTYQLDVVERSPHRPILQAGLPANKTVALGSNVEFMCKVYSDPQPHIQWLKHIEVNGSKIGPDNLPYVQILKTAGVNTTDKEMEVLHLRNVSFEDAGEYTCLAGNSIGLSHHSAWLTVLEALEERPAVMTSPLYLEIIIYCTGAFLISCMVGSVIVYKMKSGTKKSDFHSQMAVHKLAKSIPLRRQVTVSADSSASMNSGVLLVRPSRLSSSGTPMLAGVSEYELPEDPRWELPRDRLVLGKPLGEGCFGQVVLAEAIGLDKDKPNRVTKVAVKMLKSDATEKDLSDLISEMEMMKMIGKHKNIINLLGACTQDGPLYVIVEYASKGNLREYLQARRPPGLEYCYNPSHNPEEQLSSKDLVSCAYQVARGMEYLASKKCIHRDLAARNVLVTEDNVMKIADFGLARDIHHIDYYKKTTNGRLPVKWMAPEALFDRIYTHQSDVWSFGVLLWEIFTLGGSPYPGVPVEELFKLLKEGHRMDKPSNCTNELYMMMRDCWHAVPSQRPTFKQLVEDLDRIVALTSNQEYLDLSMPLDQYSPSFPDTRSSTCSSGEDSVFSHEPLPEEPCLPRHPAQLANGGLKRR
Summary of the method: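 Viability was measured by resazurin reduction (fluorescence, 540 nm excitation/590 nm emission) after a 4 h Alamar Blue incubation. This followed 24 h of compound treatment at 37 °C, 5% CO2, of 20000 FGFR1-transfected Ba/F3 cells per well in 10% FBS RPMI-1640.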

[2] = test system: Ba/F3-FGFR1-transfected cells; test: Ba/F3-FGFR1 (plus IL3) cellular proliferation assay, counterscreen with 10 ng/ml murine IL3; assay type: cell-based; conditions: for BAF3-FGFR1 (PLUS IL3) pIC50: plus IL3 (10 ng/ml murine IL3, counterscreen); for IC50: read-out: BAF3-FGFR1 (PLUS IL3) pIC50 (converted)
Summary of the method: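 Proliferation read-out: resazurin-based Alamar Blue fluorescence (540/590 nm) after 4 h, following 24 h compound treatment of 20000 Ba/F3-FGFR1 cells per well in 10% FBS RPMI at 37° C. IL3 counterscreen used the same protocol plus 10 ng/ml murine IL3.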

[3] = biological target: T2, Ba/F3-FGFR3-transfected cells (Homo sapiens, UniProt P22607); test: Ba/F3-FGFR3 (minus IL3) cellular proliferation assay, Alamar Blue; assay type: cell-based
T2 construct: BAF3-FGFR3 (MIN IL3) pIC50; other: minus IL3
Summary of the method: (§1)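 Viability readout was resazurin reduction (ex 540/em 590 nm) after 4 h, following 24 h compound treatment at 37 °C of FGFR3-transfected Ba/F3 cells (20000/well, RPMI-1640/10% FBS). IL3-dependent counterscreen used identical conditions plus 10 ng/ml murine IL3.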

[4] = test system: Ba/F3-FGFR3-transfected cells; test: Ba/F3-FGFR3 (plus IL3) cellular proliferation assay, counterscreen with 10 ng/ml murine IL3; assay type: cell-based; conditions: for BAF3-FGFR3 (PLUS IL3) pIC50: plus IL3 (10 ng/ml murine IL3, counterscreen); for IC50: read-out: BAF3-FGFR3 (PLUS IL3) pIC50 (converted)
Summary of the method: as §1

[5] = biological target: T3, Ba/F3-KDR-transfected cells (Homo sapiens, UniProt P35968); test: Ba/F3-KDR (minus IL3) cellular proliferation assay, Alamar Blue; assay type: cell-based
T3 construct: BAF3-KDR (MIN IL3) pIC50; other: minus IL3
T3 sequence (P35968 whole entry, change not shown): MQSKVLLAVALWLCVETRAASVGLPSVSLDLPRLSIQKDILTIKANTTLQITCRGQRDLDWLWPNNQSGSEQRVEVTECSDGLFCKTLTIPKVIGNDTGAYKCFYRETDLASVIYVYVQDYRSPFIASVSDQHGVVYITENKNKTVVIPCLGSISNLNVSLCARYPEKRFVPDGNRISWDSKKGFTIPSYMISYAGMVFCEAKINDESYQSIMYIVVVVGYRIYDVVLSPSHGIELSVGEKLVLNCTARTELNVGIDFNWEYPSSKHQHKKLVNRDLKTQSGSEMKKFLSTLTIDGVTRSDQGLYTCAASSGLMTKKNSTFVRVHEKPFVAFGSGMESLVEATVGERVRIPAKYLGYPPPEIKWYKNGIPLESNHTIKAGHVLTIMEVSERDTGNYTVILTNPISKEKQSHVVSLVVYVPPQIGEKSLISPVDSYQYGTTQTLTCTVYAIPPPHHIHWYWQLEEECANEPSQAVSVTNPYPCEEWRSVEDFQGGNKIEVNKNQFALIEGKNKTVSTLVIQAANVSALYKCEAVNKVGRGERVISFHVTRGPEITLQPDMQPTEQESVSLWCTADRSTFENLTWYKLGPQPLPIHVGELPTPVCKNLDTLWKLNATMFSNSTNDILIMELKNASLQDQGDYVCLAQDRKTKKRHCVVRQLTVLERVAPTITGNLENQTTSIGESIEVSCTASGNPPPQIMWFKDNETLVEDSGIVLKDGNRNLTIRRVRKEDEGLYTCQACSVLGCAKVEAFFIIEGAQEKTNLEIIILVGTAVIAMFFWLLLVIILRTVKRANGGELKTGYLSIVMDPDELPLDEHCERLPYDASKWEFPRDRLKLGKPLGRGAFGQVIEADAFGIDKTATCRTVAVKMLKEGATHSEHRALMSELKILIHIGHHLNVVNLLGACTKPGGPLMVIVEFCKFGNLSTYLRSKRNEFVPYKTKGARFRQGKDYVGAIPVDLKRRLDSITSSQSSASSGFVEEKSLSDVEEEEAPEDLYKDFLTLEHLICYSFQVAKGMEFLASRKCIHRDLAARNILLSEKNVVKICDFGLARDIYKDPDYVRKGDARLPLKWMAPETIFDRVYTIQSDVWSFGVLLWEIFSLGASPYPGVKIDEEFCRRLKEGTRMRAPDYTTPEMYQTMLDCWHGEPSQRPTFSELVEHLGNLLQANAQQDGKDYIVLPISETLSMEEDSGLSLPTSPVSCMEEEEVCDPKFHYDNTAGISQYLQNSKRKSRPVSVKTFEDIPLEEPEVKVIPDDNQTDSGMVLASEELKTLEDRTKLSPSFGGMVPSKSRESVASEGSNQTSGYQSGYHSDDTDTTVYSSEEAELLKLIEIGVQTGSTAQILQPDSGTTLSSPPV
Summary of the method: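 Proliferation read-out by Alamar Blue fluorescence (ex. 540 nm, em. 590 nm) after 4 hours, following 24 hours of compound treatment at 37° C of 20000 Ba/F3-KDR cells per well in RPMI-1640/10% FBS. Same protocol with 10 ng/ml murine IL3 serves as counterscreen.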

[6] = test system: Ba/F3-KDR-transfected cells; test: Ba/F3-KDR (plus IL3) cellular proliferation assay, counterscreen with 10 ng/ml murine IL3; assay type: cell-based; conditions: for BAF3-KDR (PLUS IL3) pIC50: plus IL3 (10 ng/ml murine IL3, counterscreen); for IC50: read-out: BAF3-KDR (PLUS IL3) pIC50 (converted)
Protocol: Ba/F3-KDR (Minus IL3 or Plus IL3) (Cellular Proliferation Assay)
In a 384 well plate, 100 n1 of compound dilution in DMSO was sprayed before adding 50 μl cell culture medium (phenol red free RPMI-1640, 10% FBS, 2 mM L-Glutamine and 50 μg/ml Gentamycin) containing 20000 cells per well of Ba/F3-KDR-transfected cells. Cells were put in an incubator at 37° C. and 5% CO2. After 24 hours, 10 μl of Alamar Blue solution (0.5 mM K3Fe(CN)6, 0.5 mM K4Fe(CN)6, 0.15 mM Resazurin and 100 mM Phosphate Buffer) was added to the wells, incubated for 4 hours at 37° C. and 5% CO2 before RFU's (Relative Fluorescence Units) (ex. 540 nm., em. 590 nm.) were measured in a fluororescence plate reader.
As a counterscreen the same experiment was performed in the presence of 10 ng/ml murine IL3.

[7] = biological target: Ba/F3-FGFR4-transfected cells (Homo sapiens, UniProt P22455); test: Ba/F3-FGFR4 cellular proliferation assay, Alamar Blue; assay type: cell-based
Summary of the method: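 Proliferation is measured by resazurin reduction: after 24 h compound treatment at 37 °C in RPMI-1640/10% FBS, cells get Alamar Blue for 4 h before RFU read (540/590 nm). Each well holds 20000 Ba/F3-FGFR4-transfected cells.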

[8] = average values if tested multiple times

Chain of FGFR1 (h) (P11362 22-822): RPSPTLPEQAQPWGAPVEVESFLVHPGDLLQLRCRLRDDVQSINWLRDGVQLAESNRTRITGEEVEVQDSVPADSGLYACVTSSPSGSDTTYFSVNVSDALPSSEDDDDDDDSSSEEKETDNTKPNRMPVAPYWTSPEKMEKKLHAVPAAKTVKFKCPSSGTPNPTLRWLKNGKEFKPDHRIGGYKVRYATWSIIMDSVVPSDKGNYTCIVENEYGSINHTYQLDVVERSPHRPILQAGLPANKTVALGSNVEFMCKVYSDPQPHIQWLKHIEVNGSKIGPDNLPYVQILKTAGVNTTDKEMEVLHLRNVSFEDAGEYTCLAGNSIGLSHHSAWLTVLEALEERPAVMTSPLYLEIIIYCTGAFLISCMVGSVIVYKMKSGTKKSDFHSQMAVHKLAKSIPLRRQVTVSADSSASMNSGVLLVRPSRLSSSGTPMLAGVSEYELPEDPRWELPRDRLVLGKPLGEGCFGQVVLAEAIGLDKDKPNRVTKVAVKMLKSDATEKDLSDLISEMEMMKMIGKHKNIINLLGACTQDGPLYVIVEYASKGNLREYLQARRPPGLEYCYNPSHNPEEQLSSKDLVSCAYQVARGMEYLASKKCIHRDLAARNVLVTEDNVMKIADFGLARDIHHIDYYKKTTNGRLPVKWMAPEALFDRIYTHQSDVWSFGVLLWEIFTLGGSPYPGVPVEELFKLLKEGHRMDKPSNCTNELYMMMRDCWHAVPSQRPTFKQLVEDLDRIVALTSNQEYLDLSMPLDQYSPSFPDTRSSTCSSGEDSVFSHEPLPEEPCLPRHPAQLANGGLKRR

SMILES	IC50 (FGFR1 (h); [8]) [nM]	IC50 (FGFR2 (h); [8]) [nM]	IC50 (FGFR3 (h); [8]) [nM]	pIC50 (FGFR4 (h); [8])	IC50 (KDR (h); [8]) [nM]	BAF3-FGFR1 (MIN IL3) pIC50 [1]	BAF3-FGFR1 (PLUS IL3) pIC50 [2]	BAF3-FGFR3 (MIN IL3) pIC50 [3]	BAF3-FGFR3 (PLUS IL3) pIC50 [4]	BAF3-KDR (MIN IL3) pIC50 [5]	BAF3-KDR (PLUS IL3) pIC50 [6]	BAF3-FGFR4 pIC50 [7]	IC50 [2] [nM]	IC50 [4] [nM]	IC50 [6] [nM]	IC50 (FGFR1 (h)) [nM]	IC50 (FGFR2 (h)) [nM]	IC50 (FGFR3 (h)) [nM]	pIC50 (FGFR4 (h))	IC50 (KDR (h)) [nM]	further results
COc1cc(OC)c(F)c(N(CC2CCC(=O)N2)c2ccc3ncc(-c4cnn(C)c4)nc3n2)c1F (stereo not drawn) [Compound 48]	1.26	3.24	1.7	8.66	24.5	8.00	<5	~7.94	<5	6.03	<5	6.89									
COc1cc(OC)c(F)c(N(CC2CCC(=O)N2)c2ccc3ncc(-c4cnn(C)c4)nc3n2)c1 (stereo not drawn) [Compound 52]	2.57	2.69	1.95	8.32	25.1	7.10	<5	7.10	<5	5.56	<5	6.55									
COc1cc(/N=c2\ccc3ncc(-c4cnn(C)c4)nc3n2CC2CCC(=O)N2)c(F)c(OC)c1 (stereo not drawn) [Compound 53]	1.2	1.62	1.1	8.48	12.3	7.47	<5	7.54	<5	5.99	<5	6.85									
COc1cc(OC)c(F)c(N(CC(O)COC(C)C)c2ccc3ncc(-c4cnn(C)c4)nc3n2)c1F (stereo not drawn) [Compound 61]	2.24	4.17	3.98	8.39	16.6	7.56	<5	7.87	<5	6.29	<5	7.56									
COc1cc(OC)c(F)c(N(CC(O)COC(C)C)c2ccc3ncc(-c4cnn(C)c4)nc3n2)c1F (stereo not drawn) [Compound 62]	4.07	7.76	5.5	8.48	32.4	8.06	<5	8.10	<5	6.21	<5	7.92									
CNCCn1/c(=N/c2c(F)ccc(OC)c2Cl)ccc2ncc(-c3cnn(C)c3)nc21 [Compound 70]	39.8	23.4	38.9	7.03	537	5.75		6.31		<5		5.69	> 10000	> 10000	> 10000						
COc1cc(OC)c(F)c(N(Cc2nc3ccccc3[nH]2)c2ccc3ncc(-c4cnn(C)c4)nc3n2)c1 [Compound 80]	1.35	2.63	1.82	8.81	10.2	7.76		8.08		5.79		7.36	> 10000	> 10000	> 10000						
CNCCn1/c(=N/c2c(Cl)c(OC)cc(OC)c2Cl)ccc2ncc(-c3cnn(C)c3)nc21 [Compound 82]	11.7	10.7	14.1	6.74	490	6.67		~6.61		<5		5.43	> 10000	> 10000	> 10000						
COc1ccc(Cl)c(N(CC2CCC(=O)N2)c2ccc3ncc(-c4cnn(C)c4)nc3n2)c1Cl (stereo not drawn) [Compound 94]						5.52	<5	~5.56	<5	<5	<5	<5				97.7	49	81.3	6.17		VEGFR 2 (KDR) pIC50 (KDR (h)): <6
CNCCn1/c(=N/c2c(F)c(OC)cc(OC)c2F)ccc2ncc(-c3cn[nH]c3)nc21 [Compound 121]						7.38		6.88		5.25		6.08	> 10000	> 10000	> 10000	1.62	2.57	1	8.53	26.9	
COc1cc(/N=c2\ccc3ncc(-c4cnn(C)c4)nc3n2CCCN2CCCC2=O)cc(OC)c1 [Compound 133]						7.30		~7.58		6.39		6.73	> 10000	> 10000	> 10000	1	1.23	0.724	8.80	5.89	
COc1cc(/N=c2\ccc3ncc(-c4cnn(C)c4)nc3n2CCN2CCCC2=O)cc(OC)c1 [Compound 150]						6.80		~7.06		5.34		6.18	> 10000	> 10000	> 10000	3.8	2.51	3.55	7.83	30.9	
COc1cc(/N=c2\ccc3ncc(-c4cnn(C)c4)nc3n2CC2CCC(=O)N2C)c(F)c(OC)c1 (stereo not drawn) [Compound 160]						7.58	<5	7.20	<5	5.89	<5	6.99				1.17	1.82	1.07	~8.47	7.24	
